Data published in patent US10214509B2, “Amino-substituted heterocyclic derivatives as sodium channel inhibitors” (ALMIRALL, S.A., priority 2015, dated 2019).

Tests used:
[1] = target: voltage-gated sodium channel Nav1.7 (Homo sapiens (Human), UniProt Q15858); test: Nav1.7 screening assay, IonWorks Quattro automated patch-clamp electrophysiology; assay type: cell-based; conditions: stable cell line expressing Nav1.7; holding potential −100 mV; compound incubation 5 minutes; IC50 fitted to percent block; read-out: Nav 1.7 IC50
Experimental: (§1) Assay Procedure Nav1.7 and Nav1.5 Screening Assay
(§2) Stable cell lines expressing the full-length protein of the voltage-gated sodium channels Nav1.7 or Nav1.5, with or without one beta-1, beta-2, beta-3, or beta-4 subunit, are created by transfected CHO cells or HEK293 cells, or any other suitable cell line, with a vector construct containing the complete open reading frame under a suitable promoter, as well known in the art.
(§3) Electrophysiological studies are performed with an IonWorks Quattro (Molecular Devices Corp.) automated patch-clamp electrophysiology platform as described by (Schroeder K et al. Journal of Biomolecular Screening 2003, 8 (1), 50-64). Buffers for the experiments have the following composition (mM): Internal solution; K-gluconate 100, KCl 40, MgCl2 3.2, HEPES 5, EGTA 3, pH 7.3. To this amphotericin B is added to final concentration of 0.1 mg/ml to generate access solution. External solution; Dulbecco's Phosphate buffered saline (D-PBS) NaCl 137.93, KCl 2.67, KH2PO4 1.47, Na2HPO4 8.06, CaCl2 0.90, MgCl2 0.49. Prior to the experiment the cells expressing the voltage-gated ion channel of interest are detached from the tissue culture flasks, centrifuged and resuspended in D-PBS. Compounds are prepared and serially diluted in DMSO and finally diluted 1:100 in D-PBS. Cells are exposed to compounds through the pipetting system integrated into the platform and the voltage-gated ion channel of interest is activated with specific voltage stimulation protocols. The following voltage stimulation protocol is used for testing compounds against the voltage-gated sodium channel Nav1.7; from a holding potential of −100 mV a train of eight 60 ms depolarising steps to −20 mV at a frequency of 14 Hz are employed followed by a further step to −20 mV for 2000 ms. After which the voltage is returned to −100 mV for 10 ms before another voltage step to −20 mV for 60 ms is applied. The following voltage stimulation protocol is used for testing compounds against the voltage-gated sodium channel Nav1.5; from a holding potential of −120 mV a train of twenty-six 120 ms depolarising steps to −20 mV at a frequency of 5 Hz are employed. Recordings are made before and after compound addition with the compound incubation time being 5 minutes.
(§4) Percent block was calculated for each concentration in duplicate for peak 1 and peak 10 and peak 1 and 25 for Nav 1.7 and Nav 1.5 respectively in order to assess compound activity at close and inactivated states and IC50 curves were fitted to percent block as a function of concentration.

[2] = target: voltage-gated sodium channel Nav1.5 (Homo sapiens (Human), UniProt Q14524); test: Nav1.5 screening assay, IonWorks Quattro automated patch-clamp electrophysiology; assay type: cell-based; conditions: stable cell line expressing Nav1.5; holding potential −120 mV; compound incubation 5 minutes; IC50 fitted to percent block; read-out: Nav 1.5 IC50
Experimental: as §1, §2, §3, §4

Chain of voltage-gated sodium channel Nav1.5 (Q14524 whole entry): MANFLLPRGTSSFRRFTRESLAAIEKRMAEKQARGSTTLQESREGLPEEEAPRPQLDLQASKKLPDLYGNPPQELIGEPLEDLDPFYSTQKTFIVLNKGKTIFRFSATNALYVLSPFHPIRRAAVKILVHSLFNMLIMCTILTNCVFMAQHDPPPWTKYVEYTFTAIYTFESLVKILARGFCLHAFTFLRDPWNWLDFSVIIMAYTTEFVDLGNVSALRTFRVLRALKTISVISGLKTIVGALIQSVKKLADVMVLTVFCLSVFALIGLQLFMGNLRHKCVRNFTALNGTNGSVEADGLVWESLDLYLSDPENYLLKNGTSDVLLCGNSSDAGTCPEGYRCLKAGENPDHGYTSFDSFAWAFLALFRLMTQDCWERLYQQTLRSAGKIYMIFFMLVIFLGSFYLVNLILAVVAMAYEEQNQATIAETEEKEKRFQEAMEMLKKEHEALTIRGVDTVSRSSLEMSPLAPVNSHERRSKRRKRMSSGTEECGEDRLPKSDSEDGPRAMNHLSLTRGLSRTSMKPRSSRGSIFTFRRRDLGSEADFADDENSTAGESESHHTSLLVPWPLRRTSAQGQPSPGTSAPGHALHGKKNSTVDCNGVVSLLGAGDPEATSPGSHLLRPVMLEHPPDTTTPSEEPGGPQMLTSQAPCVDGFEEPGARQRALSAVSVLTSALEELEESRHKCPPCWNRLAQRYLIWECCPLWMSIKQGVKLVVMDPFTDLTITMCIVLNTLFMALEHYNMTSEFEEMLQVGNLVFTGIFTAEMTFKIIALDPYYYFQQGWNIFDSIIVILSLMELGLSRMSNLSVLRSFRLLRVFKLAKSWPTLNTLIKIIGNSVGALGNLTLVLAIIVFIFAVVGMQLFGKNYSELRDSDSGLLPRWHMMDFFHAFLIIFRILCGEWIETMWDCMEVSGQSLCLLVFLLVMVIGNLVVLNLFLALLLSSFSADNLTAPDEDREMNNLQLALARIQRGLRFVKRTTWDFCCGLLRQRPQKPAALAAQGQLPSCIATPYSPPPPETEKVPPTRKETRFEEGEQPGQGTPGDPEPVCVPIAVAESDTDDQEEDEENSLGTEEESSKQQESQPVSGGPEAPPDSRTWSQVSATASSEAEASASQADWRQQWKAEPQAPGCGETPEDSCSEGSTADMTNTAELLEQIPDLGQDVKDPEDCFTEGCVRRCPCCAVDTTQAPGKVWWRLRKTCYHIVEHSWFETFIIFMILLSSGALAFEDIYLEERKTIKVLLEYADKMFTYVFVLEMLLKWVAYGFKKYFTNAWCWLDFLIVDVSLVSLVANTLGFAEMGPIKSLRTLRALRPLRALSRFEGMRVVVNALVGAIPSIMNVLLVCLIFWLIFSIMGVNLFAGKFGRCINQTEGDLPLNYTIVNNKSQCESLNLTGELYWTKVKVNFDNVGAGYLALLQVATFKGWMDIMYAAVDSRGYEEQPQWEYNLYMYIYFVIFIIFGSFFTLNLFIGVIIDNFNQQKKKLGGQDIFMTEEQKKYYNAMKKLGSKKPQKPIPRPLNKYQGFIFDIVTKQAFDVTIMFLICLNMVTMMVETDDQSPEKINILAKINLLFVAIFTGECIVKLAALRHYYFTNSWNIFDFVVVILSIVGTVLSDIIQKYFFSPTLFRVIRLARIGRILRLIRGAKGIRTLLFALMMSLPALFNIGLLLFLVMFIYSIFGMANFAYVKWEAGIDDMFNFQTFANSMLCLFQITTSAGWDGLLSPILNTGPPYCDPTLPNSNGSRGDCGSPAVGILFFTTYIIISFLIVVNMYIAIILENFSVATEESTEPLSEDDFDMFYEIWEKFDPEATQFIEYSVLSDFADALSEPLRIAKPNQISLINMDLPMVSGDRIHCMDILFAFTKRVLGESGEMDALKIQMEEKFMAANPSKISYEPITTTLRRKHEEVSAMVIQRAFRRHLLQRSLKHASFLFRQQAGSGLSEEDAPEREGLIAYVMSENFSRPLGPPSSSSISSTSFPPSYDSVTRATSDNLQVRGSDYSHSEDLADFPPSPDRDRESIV
Chain of voltage-gated sodium channel Nav1.7 (Q15858 whole entry): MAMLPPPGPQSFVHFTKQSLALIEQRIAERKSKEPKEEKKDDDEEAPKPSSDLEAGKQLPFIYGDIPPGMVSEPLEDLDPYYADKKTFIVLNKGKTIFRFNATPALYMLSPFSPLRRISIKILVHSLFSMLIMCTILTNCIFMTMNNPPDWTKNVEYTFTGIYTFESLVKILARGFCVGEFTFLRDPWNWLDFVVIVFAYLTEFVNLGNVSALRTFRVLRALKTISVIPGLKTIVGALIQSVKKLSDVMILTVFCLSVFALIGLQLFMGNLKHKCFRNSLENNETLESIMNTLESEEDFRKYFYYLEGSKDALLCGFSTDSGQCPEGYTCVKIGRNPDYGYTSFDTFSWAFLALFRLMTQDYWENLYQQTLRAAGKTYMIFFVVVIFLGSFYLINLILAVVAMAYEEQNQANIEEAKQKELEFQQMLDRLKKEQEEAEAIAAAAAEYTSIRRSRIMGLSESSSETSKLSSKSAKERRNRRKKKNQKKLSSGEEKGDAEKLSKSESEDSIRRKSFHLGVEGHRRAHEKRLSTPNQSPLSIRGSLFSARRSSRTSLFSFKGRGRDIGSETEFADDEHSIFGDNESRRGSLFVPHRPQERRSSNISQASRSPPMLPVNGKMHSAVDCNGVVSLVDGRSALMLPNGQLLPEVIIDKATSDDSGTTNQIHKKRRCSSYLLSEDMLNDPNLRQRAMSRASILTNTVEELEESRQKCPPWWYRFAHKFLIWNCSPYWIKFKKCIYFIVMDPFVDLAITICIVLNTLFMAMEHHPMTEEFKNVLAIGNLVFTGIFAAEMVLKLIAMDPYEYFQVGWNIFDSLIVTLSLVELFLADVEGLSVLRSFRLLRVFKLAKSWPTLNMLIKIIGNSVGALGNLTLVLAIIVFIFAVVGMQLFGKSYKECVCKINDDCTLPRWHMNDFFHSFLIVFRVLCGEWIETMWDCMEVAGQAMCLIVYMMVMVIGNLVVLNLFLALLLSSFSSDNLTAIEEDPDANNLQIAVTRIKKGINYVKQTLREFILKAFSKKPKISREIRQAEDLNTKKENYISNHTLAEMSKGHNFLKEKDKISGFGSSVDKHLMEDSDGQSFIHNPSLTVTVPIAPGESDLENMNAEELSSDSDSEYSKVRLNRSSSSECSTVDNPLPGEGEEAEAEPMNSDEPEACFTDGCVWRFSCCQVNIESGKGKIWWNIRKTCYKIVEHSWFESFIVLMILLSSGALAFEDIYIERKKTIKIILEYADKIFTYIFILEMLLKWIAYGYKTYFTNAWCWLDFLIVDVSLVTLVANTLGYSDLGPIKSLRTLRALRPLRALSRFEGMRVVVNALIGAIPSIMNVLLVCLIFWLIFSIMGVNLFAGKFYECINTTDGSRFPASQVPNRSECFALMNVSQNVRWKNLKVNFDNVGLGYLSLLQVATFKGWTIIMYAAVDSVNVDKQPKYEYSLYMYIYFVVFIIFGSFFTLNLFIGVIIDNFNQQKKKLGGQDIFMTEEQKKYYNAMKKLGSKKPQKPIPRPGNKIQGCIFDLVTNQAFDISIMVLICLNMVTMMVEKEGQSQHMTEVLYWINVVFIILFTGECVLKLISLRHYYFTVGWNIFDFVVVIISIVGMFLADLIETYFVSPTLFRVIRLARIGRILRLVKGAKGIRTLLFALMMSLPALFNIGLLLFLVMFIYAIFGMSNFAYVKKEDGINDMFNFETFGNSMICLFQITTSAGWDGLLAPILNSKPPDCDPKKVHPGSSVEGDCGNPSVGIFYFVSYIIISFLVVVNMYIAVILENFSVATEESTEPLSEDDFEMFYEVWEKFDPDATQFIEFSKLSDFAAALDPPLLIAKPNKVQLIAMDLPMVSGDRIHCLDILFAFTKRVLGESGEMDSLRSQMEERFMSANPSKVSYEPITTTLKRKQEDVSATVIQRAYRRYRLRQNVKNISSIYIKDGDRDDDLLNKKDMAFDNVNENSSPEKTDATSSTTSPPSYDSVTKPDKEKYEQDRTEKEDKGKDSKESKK

| IC50 [1] | Molecule | IC50 [2] |
| --- | --- | --- |
| 300 nM | Cc1ccccc1-n1ncc(C(=O)Nc2ccc(Cl)cc2F)c1N [Example 7, 5-Amino-N-(4-chloro-2-fluoro-phenyl)-1-(o-tolyl)-1H-pyrazole-4-carboxamide] | > 33000 nM |
| 800 nM | Cc1c(F)cccc1-n1ncc(C(=O)N2CCc3cc(Cl)ccc32)c1N [Example 57, (5-Amino-1-(3-fluoro-2-methylphenyl)-1H-pyrazol-4-yl)(5-chloroindolin-1-yl)methanone] | > 33000 nM |
| 900 nM | COc1ccccc1-n1ncc(C(=O)N2CCc3cc(Cl)ccc32)c1N [Example 61, (5-Amino-1-(2-methoxyphenyl)-1H-pyrazol-4-yl)(5-chloroindolin-1-yl)methanone] | 28000 nM |
| 1000 nM | CCc1ccccc1-n1ncc(C(=O)Nc2ccc(OCC(F)(F)F)cn2)c1N [Example 140, 5-Amino-1-(2-ethylphenyl)-N-(5-(2,2,2-trifluoroethoxy)pyridin-2-yl)-1H-pyrazole-4-carboxamide] | > 33000 nM |
| 700 nM | COCCOc1ccccc1-n1nc(C)c(C(=O)Nc2ccc(C(F)(F)F)cc2F)c1N [Example 38, 5-Amino-N-(2-fluoro-4-(trifluoromethyl)phenyl)-1-(2-(2-methoxyethoxy)phenyl)-3-methyl-1H-pyrazole-4-carboxamide] | > 33000 nM |
| 400 nM | Cc1nn(-c2ccccc2F)c(N)c1C(=O)Nc1ccc(C(F)(F)F)cn1 [Example 153, 5-Amino-1-(2-fluorophenyl)-3-methyl-N-(5-(trifluoromethyl)pyridin-2-yl)-1H-pyrazole-4-carboxamide] | > 33000 nM |
| 500 nM | Cc1c(F)cccc1-n1ncc(C(=O)Nc2ccc(OC(F)(F)F)cn2)c1N [Example 55, 5-Amino-1-(3-fluoro-2-methylphenyl)-N-(5-(trifluoromethoxy)pyridin-2-yl)-1H-pyrazole-4-carboxamide] | > 33000 nM |
| 600 nM | Cc1nn(-c2cccc(F)c2C)c(N)c1C(=O)Nc1ccc(Cl)cn1 [Example 137, 5-Amino-N-(5-chloro-2-pyridyl)-1-(3-fluoro-2-methylphenyl)-3-methyl-pyrazole-4-carboxamide] | > 33000 nM |
| 800 nM | Cc1c(F)cccc1-n1nnc(C(=O)Nc2ccc(Cl)cn2)c1N [Example 75, 5-Amino-N-(5-chloropyridin-2-yl)-1-(3-fluoro-2-methylphenyl)-1H-1,2,3-triazole-4-carboxamide] | > 33000 nM |
| 1900 nM | COc1ccccc1-n1cnc(C(=O)Nc2ccc(Cl)cc2)c1N [Example 254, 5-Amino-N-(4-chlorophenyl)-1-(2-methoxyphenyl)-1H-imidazole-4-carboxamide] | > 33000 nM |
| 1000 nM | COc1cc(-c2ccccc2-n2ncc(C(=O)Nc3ccc(Cl)cn3)c2N)ccn1 [Example 197, 5-Amino-N-(5-chloropyridin-2-yl)-1-(2-(2-methoxypyridin-4-yl)phenyl)-1H-pyrazole-4-carboxamide] | > 33000 nM |
| 700 nM | COc1ccccc1-n1ncc(C(=O)Nc2ccc(Cl)cc2)c1N [Example 1, 5-Amino-N-(4-chlorophenyl)-1-(2-methoxyphenyl)-1H-pyrazole-4-carboxamide] | 21000 nM |
| 300 nM | Nc1c(C(=O)Nc2ccc(C(F)(F)F)cn2)cnn1-c1ccccc1O [Example 208, 5-Amino-1-(2-hydroxyphenyl)-N-(5-(trifluoromethyl)pyridin-2-yl)-1H-pyrazole-4-carboxamide] | > 33000 nM |
| 700 nM | Nc1c(C(=O)Nc2ccc(Cl)cn2)cnn1-c1ccccc1-c1cccnc1 [Example 196, 5-Amino-N-(5-chloropyridin-2-yl)-1-(2-(pyridin-3-yl)phenyl)-1H-pyrazole-4-carboxamide] | 17000 nM |
| 200 nM | Cc1c(F)cccc1-n1cnc(C(=O)Nc2ccc(C(F)(F)F)cn2)c1N [Example 251, 5-Amino-1-(3-fluoro-2-methylphenyl)-N-(5-(trifluoromethyl)pyridin-2-yl)-1H-imidazole-4-carboxamide] |  |
| 400 nM | CCc1nn(-c2ccccc2OC)c(N)c1C(=O)Nc1ccc(C(F)(F)F)cn1 [Example 114, 5-Amino-3-ethyl-1-(2-methoxyphenyl)-N-(5-(trifluoromethyl)pyridin-2-yl)-1H-pyrazole-4-carboxamide] | > 33000 nM |
| 300 nM | CCc1nn(-c2cccc(F)c2C)c(N)c1C(=O)Nc1ccc(C(F)(F)F)cn1 [Example 143, 5-Amino-3-ethyl-1-(3-fluoro-2-methylphenyl)-N-[5-trifluoromethyl-2-pyridyl]pyrazole-4-carboxamide] | 10000 nM |

| Molecule | IC50 [1] | IC50 [2] |
| --- | --- | --- |
| 5-Amino-1-(2-(2-methoxyethoxy)phenyl)-3-methyl-N-(2-methyl-4-(trifluoromethyl)phenyl)-1H-pyrazole-4-carboxamide [Example 115] | 700 nM | > 33000 nM |
